Measured values reported in ChEMBL document CHEMBL5360629, “AI-Powered Virtual Screening of Large Compound Libraries Leads to the Discovery of Novel Inhibitors of Sirtuin-1” (J Med Chem, 2023).
The source made the active and inactive calls. No cut-off for these calls is given here.

Columns and labels:
[1] = biological target: Carbonic anhydrase (Homo sapiens) (UniProt P00918+P43166+P00915+P07451+P23280+O43570+Q9ULX7+Q16790+P22748+Q8N1Q1+Q9Y2D0+P35218); assay: Binding affinity to carbonic anhydrase (unknown origin) assessed as change in melting temperature incubated for 15 mins by Sypro orange staining based thermal scanning analysis; format: protein assay; settings: dose 0.01-1000 µM
[2] = biological target: T1, NAD-dependent protein deacetylase sirtuin-1 (Homo sapiens) (UniProt Q96EB6); settings: dose 20.0 µM
T1 sequence (whole entry): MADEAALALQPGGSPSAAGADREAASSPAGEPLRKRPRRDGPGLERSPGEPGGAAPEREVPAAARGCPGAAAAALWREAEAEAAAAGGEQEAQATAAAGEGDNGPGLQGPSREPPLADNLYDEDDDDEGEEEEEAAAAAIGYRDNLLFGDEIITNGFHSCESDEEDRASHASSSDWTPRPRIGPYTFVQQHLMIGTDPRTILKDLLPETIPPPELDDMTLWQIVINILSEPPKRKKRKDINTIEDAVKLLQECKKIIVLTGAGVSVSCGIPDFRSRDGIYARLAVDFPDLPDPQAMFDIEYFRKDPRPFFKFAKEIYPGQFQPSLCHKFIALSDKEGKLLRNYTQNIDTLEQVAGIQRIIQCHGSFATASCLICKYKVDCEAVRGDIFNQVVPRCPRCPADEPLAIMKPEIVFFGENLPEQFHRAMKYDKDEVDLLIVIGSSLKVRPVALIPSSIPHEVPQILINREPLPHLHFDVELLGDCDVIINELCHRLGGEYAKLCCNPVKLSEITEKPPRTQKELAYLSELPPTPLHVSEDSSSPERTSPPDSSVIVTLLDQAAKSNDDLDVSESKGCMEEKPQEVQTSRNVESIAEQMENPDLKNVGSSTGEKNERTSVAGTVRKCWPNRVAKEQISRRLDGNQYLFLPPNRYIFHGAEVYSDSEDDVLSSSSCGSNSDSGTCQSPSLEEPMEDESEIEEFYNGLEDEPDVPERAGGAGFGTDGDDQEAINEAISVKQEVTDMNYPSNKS
Description: Binding affinity to human recombinant truncated Sirtuin-1 expressed in Escherichia coli assessed as change in melting temperature at 20 uM by SYPRO orange dye based thermal shift assay

[3] = biological target: T2, NAD-dependent protein deacetylase sirtuin-1 (Homo sapiens, UniProt Q96EB6); assay: Inhibition of Sirtuin-1 (unknown origin) incubated for 30 mins by luminogenic SIRT-Glo assay
T2 sequence (Q96EB6 whole entry): T1 sequence (whole entry)

| Structure (SMILES) | Activity [1] | ΔTm [2] | IC50 [3] |
| --- | --- | --- | --- |
| O=C(NCCc1c[nH]c2ccccc12)c1ccccc1O | Dose-Dependent Effect | 1.8 °C | 3.4 µM |
| O=S(=O)(NCCc1c[nH]c2ccccc12)c1cc(Cl)cc(Cl)c1 | – | 1 °C | – |
| NC(=O)c1ccc(N2CCN(C(c3ccccc3)c3ccccc3)CC2)c([N+](=O)[O-])c1 | – | 1 °C | – |
| COc1ccc(N2CCN(c3nc(-c4ccccc4)nc4ccccc34)CC2)cc1 | inactive | 1.6 °C | 40 µM |
| O=C(Nc1ccccc1)Nc1ccc(NC(=O)c2ccc(Br)cc2)cc1 | – | 2.1 °C | – |

Further lines, results first:

| Activity [1] | ΔTm [2] | IC50 [3] | Structure (SMILES) |
| --- | --- | --- | --- |
| – | 2.8 °C | – | O=C(CCc1c[nH]c2ccccc12)NNC(=O)CCc1c[nH]c2ccccc12 |
| – | 12.9 °C | – | O=C(CCc1ccccc1O)NCCc1c[nH]c2ccccc12 |
